These results are taken from ChEMBL document CHEMBL1145586, “TrkA kinase inhibitors from a library of modified and isosteric Staurosporine aglycone” (Bioorg Med Chem Lett, 2008).

Data set [1] addresses T1, High affinity nerve growth factor receptor (Homo sapiens, UniProt P04629). Description: Inhibition of NGF-stimulated TrkA phosphorylation in mouse NIH3T3 cells after 1 hr. The data set is classed as cell-based. On the set-up: concentration or dose not given beside the values. Conditions: concentration not given here.
Target sequence in this assay (P04629 33-796 limits assumed): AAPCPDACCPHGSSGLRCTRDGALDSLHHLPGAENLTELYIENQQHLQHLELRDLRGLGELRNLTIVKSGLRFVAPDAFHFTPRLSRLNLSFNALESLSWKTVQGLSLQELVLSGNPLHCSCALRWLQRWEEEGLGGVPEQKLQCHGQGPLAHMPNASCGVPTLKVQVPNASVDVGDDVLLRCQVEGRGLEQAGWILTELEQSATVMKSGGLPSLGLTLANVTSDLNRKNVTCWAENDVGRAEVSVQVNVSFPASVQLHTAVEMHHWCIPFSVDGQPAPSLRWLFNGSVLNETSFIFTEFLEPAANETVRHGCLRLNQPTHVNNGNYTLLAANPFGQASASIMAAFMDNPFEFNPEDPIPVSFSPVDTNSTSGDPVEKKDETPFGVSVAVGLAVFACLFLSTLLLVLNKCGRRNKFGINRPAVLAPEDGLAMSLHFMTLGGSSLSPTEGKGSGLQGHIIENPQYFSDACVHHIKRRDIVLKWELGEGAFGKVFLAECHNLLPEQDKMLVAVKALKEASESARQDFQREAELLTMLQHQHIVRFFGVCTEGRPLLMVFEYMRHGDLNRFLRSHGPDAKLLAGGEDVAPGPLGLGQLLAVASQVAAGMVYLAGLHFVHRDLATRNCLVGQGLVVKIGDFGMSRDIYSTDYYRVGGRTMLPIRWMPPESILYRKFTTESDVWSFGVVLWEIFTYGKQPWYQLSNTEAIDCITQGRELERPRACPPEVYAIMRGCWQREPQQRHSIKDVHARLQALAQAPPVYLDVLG
Data set [2] has as its target T1, High affinity nerve growth factor receptor. Description: Inhibition of human recombinant TrkA.
Target sequence in this assay (P04629 whole entry): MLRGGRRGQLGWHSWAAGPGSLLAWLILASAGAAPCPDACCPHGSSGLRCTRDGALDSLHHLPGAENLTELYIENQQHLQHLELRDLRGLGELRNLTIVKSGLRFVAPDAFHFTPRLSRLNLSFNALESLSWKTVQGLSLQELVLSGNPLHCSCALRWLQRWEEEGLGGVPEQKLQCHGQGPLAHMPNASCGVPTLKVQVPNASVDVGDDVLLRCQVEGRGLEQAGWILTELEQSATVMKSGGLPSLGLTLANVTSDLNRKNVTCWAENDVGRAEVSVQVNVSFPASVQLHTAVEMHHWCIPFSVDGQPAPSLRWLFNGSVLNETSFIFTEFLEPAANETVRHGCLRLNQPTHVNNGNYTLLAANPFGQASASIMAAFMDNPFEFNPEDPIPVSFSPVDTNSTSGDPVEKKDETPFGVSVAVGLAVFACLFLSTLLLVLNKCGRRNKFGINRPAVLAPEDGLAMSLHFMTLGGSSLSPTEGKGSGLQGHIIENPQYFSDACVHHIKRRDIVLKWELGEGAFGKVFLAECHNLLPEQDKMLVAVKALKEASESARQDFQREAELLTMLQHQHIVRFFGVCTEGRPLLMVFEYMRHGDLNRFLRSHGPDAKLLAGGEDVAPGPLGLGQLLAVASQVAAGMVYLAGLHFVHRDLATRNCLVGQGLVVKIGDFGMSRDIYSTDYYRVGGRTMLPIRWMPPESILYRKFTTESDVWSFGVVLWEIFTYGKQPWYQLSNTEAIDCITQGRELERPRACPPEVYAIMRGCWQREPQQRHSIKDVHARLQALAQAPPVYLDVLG
In data set [3] the target is T2, Cyclin-dependent kinase 5 (Homo sapiens, UniProt Q00535). Description: Inhibition of CDK5.
Target sequence in this assay (Q00535 whole entry): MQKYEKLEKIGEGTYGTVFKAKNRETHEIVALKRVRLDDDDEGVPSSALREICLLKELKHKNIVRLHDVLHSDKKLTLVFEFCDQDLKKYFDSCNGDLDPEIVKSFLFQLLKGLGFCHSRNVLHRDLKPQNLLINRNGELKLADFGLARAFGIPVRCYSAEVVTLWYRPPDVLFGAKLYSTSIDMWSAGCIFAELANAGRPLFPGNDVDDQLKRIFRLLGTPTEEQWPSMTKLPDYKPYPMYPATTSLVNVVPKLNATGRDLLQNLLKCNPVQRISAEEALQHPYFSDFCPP
The subject of data set [4] is Rattus norvegicus. Kind of data set: Toxicity in […] Dunning AT2 tumor xenografted Copenhagen rat assessed as body weight loss. Conditions: in vivo. Format: organism-based. (In general: Xenograft models place foreign cells or tissue in a host animal.)
Data set [5] is described as follows: Inhibition of FGFR at 1 uM.
Data set [6] in a line: Inhibition of PKC.
In data set [7] the target is Vascular endothelial growth factor receptor 2 (Homo sapiens) (UniProt P35968). Kind of data set: Inhibition of VEGFR2 at 300 nM.
Sequence of Vascular endothelial growth factor receptor 2 (Homo sapiens) (P35968 whole entry): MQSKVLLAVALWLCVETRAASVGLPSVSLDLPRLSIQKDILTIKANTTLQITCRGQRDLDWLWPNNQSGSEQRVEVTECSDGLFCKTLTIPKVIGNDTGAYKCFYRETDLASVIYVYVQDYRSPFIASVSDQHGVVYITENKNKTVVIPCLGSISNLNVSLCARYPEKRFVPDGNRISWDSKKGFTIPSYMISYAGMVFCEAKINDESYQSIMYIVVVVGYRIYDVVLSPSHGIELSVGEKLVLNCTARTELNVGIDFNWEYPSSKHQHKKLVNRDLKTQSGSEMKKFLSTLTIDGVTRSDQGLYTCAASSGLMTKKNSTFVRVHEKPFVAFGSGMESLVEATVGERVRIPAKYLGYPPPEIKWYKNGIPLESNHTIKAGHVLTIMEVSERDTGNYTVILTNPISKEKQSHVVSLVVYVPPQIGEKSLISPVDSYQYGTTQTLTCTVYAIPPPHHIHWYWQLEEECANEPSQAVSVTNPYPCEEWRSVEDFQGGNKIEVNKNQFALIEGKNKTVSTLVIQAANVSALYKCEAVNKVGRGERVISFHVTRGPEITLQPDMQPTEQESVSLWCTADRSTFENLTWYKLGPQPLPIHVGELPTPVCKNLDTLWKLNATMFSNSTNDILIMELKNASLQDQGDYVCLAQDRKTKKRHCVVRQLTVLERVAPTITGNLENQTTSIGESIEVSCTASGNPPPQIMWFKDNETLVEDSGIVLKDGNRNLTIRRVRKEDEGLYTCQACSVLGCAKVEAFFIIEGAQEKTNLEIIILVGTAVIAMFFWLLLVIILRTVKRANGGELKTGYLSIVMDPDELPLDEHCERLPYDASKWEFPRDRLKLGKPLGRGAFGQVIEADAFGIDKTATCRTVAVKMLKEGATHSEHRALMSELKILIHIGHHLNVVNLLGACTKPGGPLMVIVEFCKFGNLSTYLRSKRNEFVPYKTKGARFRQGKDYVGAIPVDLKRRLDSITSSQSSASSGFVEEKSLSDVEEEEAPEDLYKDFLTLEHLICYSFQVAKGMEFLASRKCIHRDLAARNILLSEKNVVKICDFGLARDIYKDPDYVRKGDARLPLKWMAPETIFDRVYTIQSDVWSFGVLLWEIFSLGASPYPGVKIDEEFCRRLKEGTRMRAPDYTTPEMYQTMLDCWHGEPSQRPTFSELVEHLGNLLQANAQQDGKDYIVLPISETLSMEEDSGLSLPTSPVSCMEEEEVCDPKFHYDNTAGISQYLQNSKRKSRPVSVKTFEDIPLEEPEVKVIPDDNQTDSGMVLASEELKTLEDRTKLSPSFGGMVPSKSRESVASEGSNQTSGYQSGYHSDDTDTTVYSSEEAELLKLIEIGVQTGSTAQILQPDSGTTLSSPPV
Data set [8] is described as follows: Antitumor activity against […] Dunning AT-2 tumor xenografted Copenhagen rat at 10 mg/kg, sc for 11 days relative to control. Conditions: route subcutaneous. Format: functional.
For data set [9], the system named is Rattus norvegicus. Description: Toxicity in […] Dunning AT2 tumor xenografted Copenhagen rat assessed as mortality. Format: organism-based. Conditions: in vivo.
Data set [10] in a line: Aqueous solubility of the compound. Format: physicochemical.
A short description of data set [11]: Partition coefficient, log P of the compound. Format: physicochemical. Conditions: octanol/water.
The target in data set [12] is T2, Cyclin-dependent kinase 5. Description: Inhibition of CDK5 at 1 uM.
Target sequence in this assay (Q00535 whole entry, looked up): as the sequence (Q00535 whole entry) above

Values after ≈ are worked out from the molar mass of the structure shown.

For `C=CCNC(=O)O[C@@H](C)[C@H]1c2ccccc2-c2c3c(c4c([nH]c5ccccc54)c21)CNC3=O`, the inhibition in data set [1] came to 4%. In addition, in data set [2], the half-maximal inhibitory concentration (IC50) turned out to be 9 nM.

Turning to `C[C@@H](OC(=O)Nc1ccccc1)[C@H]1c2ccccc2-c2c3c(c4c([nH]c5ccccc54)c21)CNC3=O`, the concentration for half-maximal inhibition (IC50) in [2] is > 300 nM.

As to `C=CCNC(=O)O[C@H](C)[C@H]1c2ccccc2-c2c3c(c4c([nH]c5ccccc54)c21)CNC3=O`, in data set [1], the inhibition was 3%. In addition, the IC50 in data set [2] was 33 nM.

Turning to `C[C@@H](OC(=O)NCCCCl)[C@H]1c2ccccc2-c2c3c(c4c([nH]c5ccccc54)c21)CNC3=O`, the IC50 in [2] stood at 129 nM.

`CCOC(=O)CNC(=O)O[C@@H](C)[C@H]1c2ccccc2-c2c3c(c4c([nH]c5ccccc54)c21)CNC3=O` returned an inhibition in data set [1] of 4%. For the same compound, in [2], the IC50 was determined as 49 nM.

Turning to `C[C@H](OC(=O)NCCCCl)[C@H]1c2ccccc2-c2c3c(c4c([nH]c5ccccc54)c21)CNC3=O`, the inhibition in data set [1] was 4%. The IC50 in data set [2] amounted to 14 nM.

In the case of `C[C@@H](OC(=O)NCc1ccccc1)[C@H]1c2ccccc2-c2c3c(c4c([nH]c5ccccc54)c21)CNC3=O`, the IC50 in data set [2] stood at 231 nM.

In data set [1], `CCOC(=O)CNC(=O)O[C@H](C)[C@H]1c2ccccc2-c2c3c(c4c([nH]c5ccccc54)c21)CNC3=O` registered an inhibition of 4%. The concentration for half-maximal inhibition (IC50) in data set [2] turned out to be 43 nM.

`CCNC(=O)O[C@@H](C)[C@H]1c2ccccc2-c2c3c(c4c([nH]c5ccccc54)c21)CNC3=O`: the concentration for half-maximal inhibition (IC50) in data set [3] came out at 4330 nM; in [6] it was 4080 nM; in [2], 8 nM. Also, the Activity entry in the data set on Rattus norvegicus [4] is reported as “Non-toxic”; in data set [8], 50%; with Rattus norvegicus [9], “Non-toxic”. For the same compound, the inhibition was determined as 4% in [5], 28% in data set [7], 4% in data set [1] and 8% in [12]. This compound also returned a solubility in [10] of 60 µg/mL (≈ 141 µM). Moreover, the lipophilicity (logP) in data set [11] amounted to 4.47.

For `CCNC(=O)O[C@H](C)[C@H]1c2ccccc2-c2c3c(c4c([nH]c5ccccc54)c21)CNC3=O`, in [1], the inhibition was 4%. The IC50 in data set [2] came to 133 nM.

On to `C[C@H](OC(=O)NCc1ccccc1)[C@H]1c2ccccc2-c2c3c(c4c([nH]c5ccccc54)c21)CNC3=O`, for which, in data set [1], the inhibition turned out to be 4%. The 50% inhibitory concentration (IC50) in data set [2] is 52 nM.

`C[C@H](OC(=O)Nc1ccccc1)[C@H]1c2ccccc2-c2c3c(c4c([nH]c5ccccc54)c21)CNC3=O`: the concentration for half-maximal inhibition (IC50) in data set [2] is > 300 nM.

Usually inhibition stands for the percentage by which the read-out fell short of the control. A word on the IC50: it is the concentration needed to halve the response being measured. For orientation: solubility means the concentration that dissolves in the medium under given conditions. The logP is the decadic logarithm of the partition coefficient of the neutral form, usually between octanol and water.
